Source: US20230312550A1, “N-(2-(4-CYANOTHIAZOLIDIN-3-YL)-2-OXOETHYL)-QUINOLINE-4-CARBOXAMIDES” (AstraZeneca AB, priority 2020, published 2023)
Converted amounts (≈) assume the structure as drawn.

Tests used:
[1] = Metabolic stability in human liver microsomes (HLM); conditions: human
Description: Metabolic stability in HLM was measured as described in J Comput Aided Mol Des 2015, 29, 795.

[2] = Metabolic stability in human hepatocytes (hHep); assay type: in vitro ADME; conditions: n = 1 or geometric mean of n = 2
Kinetic solubility = conditions: kinetic from dmso stock
Description: Kinetic solubility was measured as described in Comput Aided Mol Des 2015, 29, 795.

[3] = molecular target: Prolyl endopeptidase, Prolyl Oligopeptidase (hPREP) (Homo sapiens (Human), UniProt P48147); experiment: hPrep inhibition assay; assay type: biochemical; conditions: hPREP 0.6 nM, Z-Gly-Pro-amino-methylcoumarin 50 μM; read-out: PREP IC50
Chain of Prolyl endopeptidase, Prolyl Oligopeptidase (hPREP) (P48147 whole entry): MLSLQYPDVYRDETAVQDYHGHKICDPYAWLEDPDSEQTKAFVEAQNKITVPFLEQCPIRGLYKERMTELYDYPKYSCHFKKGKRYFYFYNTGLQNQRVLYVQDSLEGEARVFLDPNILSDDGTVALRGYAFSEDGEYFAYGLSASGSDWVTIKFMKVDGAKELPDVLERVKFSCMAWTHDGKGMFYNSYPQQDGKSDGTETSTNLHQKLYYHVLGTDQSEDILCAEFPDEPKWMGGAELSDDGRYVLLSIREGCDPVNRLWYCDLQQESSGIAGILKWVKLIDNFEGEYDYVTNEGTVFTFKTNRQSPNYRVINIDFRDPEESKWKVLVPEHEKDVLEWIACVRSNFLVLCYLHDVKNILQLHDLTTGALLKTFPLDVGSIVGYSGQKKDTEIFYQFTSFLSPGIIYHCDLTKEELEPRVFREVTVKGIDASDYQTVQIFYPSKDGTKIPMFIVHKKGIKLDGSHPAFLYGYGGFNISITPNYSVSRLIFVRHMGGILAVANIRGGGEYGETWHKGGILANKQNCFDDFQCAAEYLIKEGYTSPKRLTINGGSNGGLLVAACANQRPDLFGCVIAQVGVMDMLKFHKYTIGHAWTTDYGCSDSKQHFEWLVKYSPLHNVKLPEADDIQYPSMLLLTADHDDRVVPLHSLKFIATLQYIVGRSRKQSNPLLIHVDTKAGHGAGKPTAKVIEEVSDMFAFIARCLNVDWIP
Method in brief: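 Recombinant human PREP at 0.6 nM final with Z-Gly-Pro-AMC substrate at 50 μM final in Tris-HCl pH 7.5, NaCl, Triton X-100, glutathione; 15 min rt preincubation then 20 min rt reaction in dark. AMC fluorescence (ex 340/em 460 nm); IC50 from one-site dose-response fit of % inhibition.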

[4] = molecular target: human Fibroblast activation protein alpha (hFAP) (Homo sapiens (Human), UniProt Q12884); experiment: hFAP inhibition assay (tight binders); assay type: biochemical; conditions: Ala-Pro-AMC 20 μM, n = 1 or geometric mean n = 2-6; note: hFAP 2.4 pM
Chain of human Fibroblast activation protein alpha (hFAP) (Q12884 38-760): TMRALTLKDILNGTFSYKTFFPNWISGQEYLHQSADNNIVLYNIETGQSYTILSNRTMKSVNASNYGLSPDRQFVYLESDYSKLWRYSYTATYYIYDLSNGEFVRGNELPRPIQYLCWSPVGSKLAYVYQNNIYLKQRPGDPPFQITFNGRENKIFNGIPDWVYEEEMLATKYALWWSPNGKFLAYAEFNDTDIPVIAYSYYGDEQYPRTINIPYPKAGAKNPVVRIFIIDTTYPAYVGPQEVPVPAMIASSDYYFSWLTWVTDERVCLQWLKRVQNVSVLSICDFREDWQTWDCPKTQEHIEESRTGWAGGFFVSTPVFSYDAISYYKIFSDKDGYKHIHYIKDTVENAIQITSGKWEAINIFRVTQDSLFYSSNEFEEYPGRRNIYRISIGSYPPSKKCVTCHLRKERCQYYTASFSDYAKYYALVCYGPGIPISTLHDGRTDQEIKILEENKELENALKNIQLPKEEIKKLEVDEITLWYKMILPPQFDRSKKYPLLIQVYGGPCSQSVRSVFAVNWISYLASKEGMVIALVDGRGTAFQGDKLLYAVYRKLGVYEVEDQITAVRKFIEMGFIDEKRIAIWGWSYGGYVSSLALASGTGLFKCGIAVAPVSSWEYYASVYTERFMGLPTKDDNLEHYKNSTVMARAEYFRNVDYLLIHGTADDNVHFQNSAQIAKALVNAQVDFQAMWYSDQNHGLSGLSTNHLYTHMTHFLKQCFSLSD
Description: The plates were read on a PHERAstar® reader with excitation 340 nm and emission 460 nm. Data were analyzed in Genedata Screener®. IC50 values were determined by plotting % inhibition versus log compound concentration and using a one site dose response model.

FAP = FAP (Homo sapiens (Human), UniProt Q12884); experiment: hFAP inhibition assay; assay type: biochemical; conditions: hFAP […], Ala-Pro-AMC 20 μM; n = 1 or geometric mean n = 2-3
Chain of FAP (Q12884 38-760): as above
Method in brief: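 Human FAP (0.48 nM) in 100 mM Tris HCl, 100 mM NaCl, 0.05% Chaps, pH 7.4 was preincubated 15 min at rt in the dark with compounds (10-point, 3-fold series from 50 μM). Substrate was added from a 40 μM solution, then 30 min at rt. Fluorescence read at ex 340/em 460 nm; IC50 from one-site dose-response fit of % inhibition.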

[5] = Metabolic stability in rat hepatocytes (rHep); conditions: n = 1 or geometric mean of n = 2-3
Caco-2 cell permeability = conditions: human
Description: Caco-2 cell permeability was measured as described in Mol Pharm 2017, 14, 1601.

hFAP (M39-A757) = hFAP (M39-A757) (Homo sapiens (Human), UniProt Q12884); experiment: hFAP binding assay (surface plasmon resonance); conditions: SPR, 20° C.; for hFAP Binding assay k(off) / hFAP Binding assay k(on): single cycle kinetics; for Kd: n = 1 or geometric mean n = 2-4
Chain of hFAP (M39-A757) (Q12884 39-757): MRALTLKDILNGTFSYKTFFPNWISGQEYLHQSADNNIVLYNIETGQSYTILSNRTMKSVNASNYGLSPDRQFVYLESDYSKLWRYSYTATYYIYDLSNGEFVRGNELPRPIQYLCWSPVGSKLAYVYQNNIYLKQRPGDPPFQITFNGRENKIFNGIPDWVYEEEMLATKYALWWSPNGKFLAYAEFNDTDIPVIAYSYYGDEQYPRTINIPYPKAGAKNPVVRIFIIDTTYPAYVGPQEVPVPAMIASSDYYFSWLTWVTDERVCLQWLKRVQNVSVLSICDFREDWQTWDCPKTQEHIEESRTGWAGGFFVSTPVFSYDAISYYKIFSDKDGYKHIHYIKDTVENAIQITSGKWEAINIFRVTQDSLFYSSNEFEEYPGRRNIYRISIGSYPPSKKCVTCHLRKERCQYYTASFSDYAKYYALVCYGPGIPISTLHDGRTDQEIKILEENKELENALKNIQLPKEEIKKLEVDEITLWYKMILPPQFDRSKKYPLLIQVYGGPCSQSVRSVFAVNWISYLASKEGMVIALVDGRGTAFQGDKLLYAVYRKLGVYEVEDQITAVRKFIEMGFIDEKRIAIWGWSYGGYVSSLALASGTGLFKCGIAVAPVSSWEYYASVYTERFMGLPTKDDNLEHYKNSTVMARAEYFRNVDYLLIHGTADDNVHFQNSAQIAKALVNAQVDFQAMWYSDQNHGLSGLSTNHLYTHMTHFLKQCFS

[6] = HLM CLint, n = 1 or average of n = 2-3
[7] = Solubility, kinetic solubility, n = 1 or average of n = 2-3

SMILES	microsomal CLint [1]	hHep CLint [2]	solubility (Kinetic solubility)	IC50 [3]	IC50 [4]	IC50 (FAP)	rHep CLint [5]	Papp (Caco-2 cell permeability)	Papp A→B (Caco-2 cell permeability)	Papp B→A (Caco-2 cell permeability)	efflux ratio (Caco-2 cell permeability)	hFAP Binding assay k(off) (hFAP (M39-A757))	hFAP Binding assay k(on) (hFAP (M39-A757))	Kd (hFAP (M39-A757))	microsomal CLint [1, 6]	solubility (Kinetic solubility; [7])
CC1(C)COC12CN(c1ccc3nccc(C(=O)NCC(=O)N4CSC[C@H]4C#N)c3c1)C2 [Example 18, (R)—N-(2-(4-Cyanothiazolidin-3-yl)-2-oxoethyl)-6-(3,3-dimethyl-1-oxa-6-azaspiro[3.3]heptan-6-yl)quinoline-4-carboxamide]	22 µL/min/mg	3.7 μL/min/1E6	93 µM (≈ 42 µg/mL)	570 nM	0.047 nM	0.19 nM	6 μL/min/1E6	130 nm/s	9 nm/s	310 nm/s	34	0.000059 s⁻¹	1400000 M⁻¹ s⁻¹	0.068 nM		
CS(=O)(=O)C[C@@H]1CN(c2ccc3nccc(C(=O)NCC(=O)N4CSC[C@H]4C#N)c3c2)CCO1 [Example 94, N-(2-((R)-4-Cyanothiazolidin-3-yl)-2-oxoethyl)-6-((S)-2-((methylsulfonyl)-methyl)morpholino)quinoline-4-carboxamide]		<1 μL/min/1E6		1800 nM	0.071 nM		2.2 μL/min/1E6		1.5 nm/s	44 nm/s	29	0.000099 s⁻¹	1900000 M⁻¹ s⁻¹	0.074 nM	7.1 µL/min/mg	920 µM (≈ 463 µg/mL)
N#C[C@@H]1CSCN1C(=O)CNC(=O)c1ccnc2ccc(N3CC(F)C3)cc12 [Example 21, (R)—N-(2-(4-Cyanothiazolidin-3-yl)-2-oxoethyl)-6-(3-fluoroazetidin-1-yl)quinoline-4-carboxamide]		<1 μL/min/1E6		93 nM	0.11 nM	0.29 nM	17 μL/min/1E6		37 nm/s	230 nm/s	6.2	0.0002 s⁻¹	3000000 M⁻¹ s⁻¹	0.066 nM	15 µL/min/mg	390 µM (≈ 156 µg/mL)
N#C[C@@H]1CSCN1C(=O)CNC(=O)c1ccnc2ccc(N3CCCCC3)cc12 [Example 32, (R)—N-(2-(4-Cyanothiazolidin-3-yl)-2-oxoethyl)-6-(piperidin-1-yl)quinoline-4-carboxamide]		4.1 μL/min/1E6		450 nM	0.16 nM	0.3 nM	19 μL/min/1E6		87 nm/s	280 nm/s	3.3	0.000029 s⁻¹	1300000 M⁻¹ s⁻¹	0.022 nM	40 µL/min/mg	240 µM (≈ 98.3 µg/mL)
CS(=O)(=O)C[C@H]1CN(c2ccc3nccc(C(=O)NCC(=O)N4CSC[C@H]4C#N)c3c2)CCO1 [Example 92, N-(2-((R)-4-Cyanothiazolidin-3-yl)-2-oxoethyl)-6-((R)-2-((methylsulfonyl)-methyl)morpholino)quinoline-4-carboxamide]		<1 μL/min/1E6		2400 nM	0.074 nM		1.7 μL/min/1E6		1.2 nm/s	42 nm/s	35	0.00011 s⁻¹	2200000 M⁻¹ s⁻¹	0.047 nM	14 µL/min/mg	810 µM (≈ 408 µg/mL)
N#C[C@@H]1CSCN1C(=O)CNC(=O)c1ccnc2ccc(N3CCOC4(CCOCC4)C3)cc12 [Example 99, (R)—N-(2-(4-cyanothiazolidin-3-yl)-2-oxoethyl)-6-(1,9-dioxa-4-azaspiro[5.5]undecan-4-yl)quinoline-4-carboxamide]	16 µL/min/mg	1.9 μL/min/1E6	800 µM (≈ 385 µg/mL)	1100 nM	0.12 nM		8.1 μL/min/1E6		4.6 nm/s	210 nm/s	46	0.0002 s⁻¹	2100000 M⁻¹ s⁻¹	0.11 nM		
CC1(C)Cc2c(-c3ccc4nccc(C(=O)NCC(=O)N5CSC[C@H]5C#N)c4c3)cnn2C1 [Example 123, (R)—N-(2-(4-Cyanothiazolidin-3-yl)-2-oxoethyl)-6-(5,5-dimethyl-5,6-dihydro-4H-pyrrolo[1,2-b]pyrazol-3-yl)quinoline-4-carboxamide]		1.6 μL/min/1E6		740 nM	0.083 nM	0.25 nM	7.1 μL/min/1E6	140 nm/s	1.7 nm/s	290 nm/s	170	0.00042 s⁻¹	3000000 M⁻¹ s⁻¹	0.14 nM	32 µL/min/mg	280 µM (≈ 129 µg/mL)
N#C[C@@H]1CSCN1C(=O)CNC(=O)c1ccnc2ccc(N3CCCCO3)cc12 [Example 1, (R)—N-(2-(4-Cyanothiazolidin-3-yl)-2-oxoethyl)-6-(1,2-oxazinan-2-yl)-quinoline-4-carboxamide]		<1 μL/min/1E6		410 nM	0.099 nM		4.9 μL/min/1E6		47 nm/s	290 nm/s	6.1	0.00014 s⁻¹	730000 M⁻¹ s⁻¹	0.18 nM	14 µL/min/mg	> 1000 µM
CC1(CS(C)(=O)=O)CN(c2ccc3nccc(C(=O)NCC(=O)N4CSC[C@H]4C#N)c3c2)C1 [Example 188, (R)—N-(2-(4-Cyanothiazolidin-3-yl)-2-oxoethyl)-6-(3-methyl-3-((methylsulfonyl)methyl)azetidin-1-yl)quinoline-4-carboxamide]		<1 μL/min/1E6		430 nM	0.19 nM	0.28 nM	1.8 μL/min/1E6	2.8 nm/s	1.8 nm/s	37 nm/s	21	0.000022 s⁻¹	2600000 M⁻¹ s⁻¹	0.011 nM	3.1 µL/min/mg	990 µM (≈ 483 µg/mL)
COCC1(C)CN(c2ccc3nccc(C(=O)NCC(=O)N4CSC[C@H]4C#N)c3c2)C1 [Example 29, (R)—N-(2-(4-Cyanothiazolidin-3-yl)-2-oxoethyl)-6-(3-(methoxymethyl)-3-methylazetidin-1-yl)quinoline-4-carboxamide]		<1 μL/min/1E6		500 nM	0.055 nM	0.13 nM	4.5 μL/min/1E6	260 nm/s	37 nm/s	370 nm/s	10	0.000061 s⁻¹	1100000 M⁻¹ s⁻¹	0.057 nM	18 µL/min/mg	560 µM (≈ 246 µg/mL)
N#C[C@@H]1CSCN1C(=O)CNC(=O)c1ccnc2ccc(N3CCC4(CC3)OCCO4)cc12 [Example 228, (R)—N-(2-(4-cyanothiazolidin-3-yl)-2-oxoethyl)-6-(1,4-dioxa-8-azaspiro[4.5]decan-8-yl)quinoline-4-carboxamide]	< 3 µL/min/mg	<1 μL/min/1E6	879 µM (≈ 411 µg/mL)	1200 nM	0.087 nM		9 μL/min/1E6	9 nm/s	250 nm/s	270 nm/s	0.9					
